# Reference: PubChem BioAssay AID2060906 (Molecular Pharmacology Branch, DTP, NCI, 2025)
# Tested on: 485176-168-R4-J1-PDC complex spheroid growth
# Experiment: Anticancer human tumor 485176-168-R4-J1-PDC patient-derived pancreatic adenocarcinoma cell line growth inhibition [RAS]
# Details: for viability, T/C: stronger effect = lower value
# How it was run: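 Tumour cells grown as complex spheroids with HUVEC endothelial cells and mesenchymal stem cells, treated with RAS pathway inhibitor combinations. Each agent spans half-log steps from near clinical Cmax, or 10 microM where Cmax is unknown.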
# [1] = curve of first compound, second compound 0.0316 µM
# [2] = curve of first compound, second compound 0.1 µM
# [3] = curve of first compound, second compound 0.316 µM
# [4] = curve of first compound, second compound 1 µM
# [5] = curve of first compound, second compound 3.16 µM
# [6] = curve of first compound, second compound 10 µM
# [7] = second compound 0.0316 µM, first compound 0.0316 µM
# [8] = second compound 0.0316 µM, first compound 0.1 µM
# [9] = second compound 0.1 µM, first compound 0.0316 µM
# [10] = second compound 0.1 µM, first compound 0.1 µM
# [11] = second compound 0.316 µM, first compound 0.0316 µM
# [12] = second compound 0.316 µM, first compound 0.1 µM
# [13] = second compound 1 µM, first compound 0.0316 µM
# [14] = second compound 1 µM, first compound 0.1 µM
# [15] = second compound 3.16 µM, first compound 0.0316 µM
# [16] = second compound 3.16 µM, first compound 0.1 µM
# [17] = second compound 10 µM, first compound 0.0316 µM
# [18] = second compound 10 µM, first compound 0.1 µM
# 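Also: spheroids exposed to compounds for seven days before readout.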
# 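For viability, T/C in this document: luminescence viability expressed relative to DMSO vehicle wells set as 100%.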
compound,measurement,setting,value
C=CC(=O)N1CCN(c2nc(OCC3CCCN3C)nc3c(F)c(-c4nc(N)cc(C)c4C(F)(F)F)c(Cl)cc23)C(C)C1 (configuration not stated) + CCn1c(-c2cc(N3CCN(C)CC3)cnc2C(C)OC)c2c3cc(ccc31)-c1csc(n1)CC(NC(=O)C1CC1C)C(=O)N1CCCC(N1)C(=O)OCC(C)(C)C2,IC50,"curve of first compound, second compound 0.000949 µM",> 1000 nM
same,IC50,"curve of first compound, second compound 0.003 µM",> 1000 nM
same,IC50,"curve of first compound, second compound 0.00949 µM",> 1000 nM
same,IC50,"curve of first compound, second compound 0.03 µM",> 1000 nM
same,IC50,"curve of first compound, second compound 0.0949 µM",> 1000 nM
same,IC50,"curve of first compound, second compound 0.3 µM",> 1000 nM
same,"viability, T/C","second compound 0.000949 µM, first compound 0.00316 µM",95.4%
same,"viability, T/C","second compound 0.000949 µM, first compound 0.01 µM",86.6%
same,"viability, T/C","second compound 0.000949 µM, first compound 0.0316 µM",100%
same,"viability, T/C","second compound 0.000949 µM, first compound 0.1 µM",109%
same,"viability, T/C","second compound 0.000949 µM, first compound 0.316 µM",114%
same,"viability, T/C","second compound 0.000949 µM, first compound 1 µM",99%
same,"viability, T/C","second compound 0.003 µM, first compound 0.00316 µM",85.3%
same,"viability, T/C","second compound 0.003 µM, first compound 0.01 µM",89.7%
same,"viability, T/C","second compound 0.003 µM, first compound 0.0316 µM",87.4%
same,"viability, T/C","second compound 0.003 µM, first compound 0.1 µM",103%
same,"viability, T/C","second compound 0.003 µM, first compound 0.316 µM",101%
same,"viability, T/C","second compound 0.003 µM, first compound 1 µM",97.2%
same,"viability, T/C","second compound 0.00949 µM, first compound 0.00316 µM",89.3%
same,"viability, T/C","second compound 0.00949 µM, first compound 0.01 µM",88.5%
same,"viability, T/C","second compound 0.00949 µM, first compound 0.0316 µM",96.5%
same,"viability, T/C","second compound 0.00949 µM, first compound 0.1 µM",108%
same,"viability, T/C","second compound 0.00949 µM, first compound 0.316 µM",91.7%
same,"viability, T/C","second compound 0.00949 µM, first compound 1 µM",114%
same,"viability, T/C","second compound 0.03 µM, first compound 0.00316 µM",95.5%
same,"viability, T/C","second compound 0.03 µM, first compound 0.01 µM",97%
same,"viability, T/C","second compound 0.03 µM, first compound 0.0316 µM",77.2%
same,"viability, T/C","second compound 0.03 µM, first compound 0.1 µM",79.7%
same,"viability, T/C","second compound 0.03 µM, first compound 0.316 µM",87.6%
same,"viability, T/C","second compound 0.03 µM, first compound 1 µM",87.8%
same,"viability, T/C","second compound 0.0949 µM, first compound 0.00316 µM",84.4%
same,"viability, T/C","second compound 0.0949 µM, first compound 0.01 µM",105%
same,"viability, T/C","second compound 0.0949 µM, first compound 0.0316 µM",80.4%
same,"viability, T/C","second compound 0.0949 µM, first compound 0.1 µM",80.7%
same,"viability, T/C","second compound 0.0949 µM, first compound 0.316 µM",76.1%
same,"viability, T/C","second compound 0.0949 µM, first compound 1 µM",81.6%
same,"viability, T/C","second compound 0.3 µM, first compound 0.00316 µM",72.9%
same,"viability, T/C","second compound 0.3 µM, first compound 0.01 µM",72.8%
same,"viability, T/C","second compound 0.3 µM, first compound 0.0316 µM",82%
same,"viability, T/C","second compound 0.3 µM, first compound 0.1 µM",76.6%
same,"viability, T/C","second compound 0.3 µM, first compound 0.316 µM",91.8%
same,"viability, T/C","second compound 0.3 µM, first compound 1 µM",69.3%
CC(C)n1nc(-c2ccc3oc(N)nc3c2)c2c(N)ncnc21 + C#Cc1c(F)ccc2cc(O)cc(-c3ncc4c(N5CC6CCC(C5)N6)nc(OCC56CCCN5CC(F)C6)nc4c3F)c12,IC50,[1],31.8 nM
same,IC50,[2],19 nM
same,IC50,[3],34.6 nM
same,IC50,[4],25 nM
same,IC50,[5],22.1 nM
same,IC50,[6],23.3 nM
same,"viability, T/C","second compound 0.0316 µM, first compound 0.000316 µM",100%
same,"viability, T/C","second compound 0.0316 µM, first compound 0.001 µM",106%
same,"viability, T/C","second compound 0.0316 µM, first compound 0.00316 µM",88.6%
same,"viability, T/C","second compound 0.0316 µM, first compound 0.01 µM",82.3%
same,"viability, T/C",[7],49%
same,"viability, T/C",[8],19.8%
same,"viability, T/C","second compound 0.1 µM, first compound 0.000316 µM",96.2%
same,"viability, T/C","second compound 0.1 µM, first compound 0.001 µM",107%
same,"viability, T/C","second compound 0.1 µM, first compound 0.00316 µM",65.4%
same,"viability, T/C","second compound 0.1 µM, first compound 0.01 µM",69.2%
same,"viability, T/C",[9],39%
same,"viability, T/C",[10],23.7%
same,"viability, T/C","second compound 0.316 µM, first compound 0.000316 µM",98.3%
same,"viability, T/C","second compound 0.316 µM, first compound 0.001 µM",78.5%
same,"viability, T/C","second compound 0.316 µM, first compound 0.00316 µM",82.5%
same,"viability, T/C","second compound 0.316 µM, first compound 0.01 µM",63.1%
same,"viability, T/C",[11],61.7%
same,"viability, T/C",[12],20.1%
same,"viability, T/C","second compound 1 µM, first compound 0.000316 µM",88%
same,"viability, T/C","second compound 1 µM, first compound 0.001 µM",91.5%
same,"viability, T/C","second compound 1 µM, first compound 0.00316 µM",86.4%
same,"viability, T/C","second compound 1 µM, first compound 0.01 µM",55.9%
same,"viability, T/C",[13],51.9%
same,"viability, T/C",[14],22%
same,"viability, T/C","second compound 3.16 µM, first compound 0.000316 µM",91.9%
same,"viability, T/C","second compound 3.16 µM, first compound 0.001 µM",87.7%
same,"viability, T/C","second compound 3.16 µM, first compound 0.00316 µM",78.4%
same,"viability, T/C","second compound 3.16 µM, first compound 0.01 µM",80%
same,"viability, T/C",[15],36.6%
same,"viability, T/C",[16],21.5%
same,"viability, T/C","second compound 10 µM, first compound 0.000316 µM",92.3%
same,"viability, T/C","second compound 10 µM, first compound 0.001 µM",81.1%
same,"viability, T/C","second compound 10 µM, first compound 0.00316 µM",80.8%
same,"viability, T/C","second compound 10 µM, first compound 0.01 µM",68.9%
same,"viability, T/C",[17],42.5%
same,"viability, T/C",[18],20.9%
C=CC(=O)Nc1cc(Nc2nccc(-c3cn(C)c4ccccc34)n2)c(OC)cc1N(C)CCN(C)C,"viability, T/C",compound 0.00316 µM,96.8% [middle of 4 runs]
same,"viability, T/C",compound 0.01 µM,97.1% [middle of 4 runs]
same,"viability, T/C",compound 0.0316 µM,96.3% [middle of 4 runs]
same,"viability, T/C",compound 0.316 µM,93.2% [middle of 4 runs]
same,"viability, T/C",compound 1 µM,64.5% [middle of 4 runs]
same,IC50,curve of compound,> 1000 nM
CC(Nc1ccc2c(c1)OCCn1cc(N3C(=O)OCC3C(F)F)nc1-2)C(N)=O (configuration not stated) + C#Cc1c(F)ccc2cc(O)cc(-c3ncc4c(N5CC6CCC(C5)N6)nc(OCC56CCCN5CC(F)C6)nc4c3F)c12,IC50,[1],> 10000 nM
same,IC50,[2],> 10000 nM
same,IC50,[3],> 10000 nM
same,IC50,[4],> 10000 nM
same,IC50,[5],> 10000 nM
same,IC50,[6],> 10000 nM
same,"viability, T/C",[7],97.5%
same,"viability, T/C",[8],86.5%
same,"viability, T/C","second compound 0.0316 µM, first compound 0.316 µM",91.8%
same,"viability, T/C","second compound 0.0316 µM, first compound 1 µM",83.5%
same,"viability, T/C","second compound 0.0316 µM, first compound 3.16 µM",59.1%
same,"viability, T/C","second compound 0.0316 µM, first compound 10 µM",65.4%
same,"viability, T/C",[9],114%
same,"viability, T/C",[10],98.6%
same,"viability, T/C","second compound 0.1 µM, first compound 0.316 µM",71.9%
same,"viability, T/C","second compound 0.1 µM, first compound 1 µM",70.8%
same,"viability, T/C","second compound 0.1 µM, first compound 3.16 µM",69.4%
same,"viability, T/C","second compound 0.1 µM, first compound 10 µM",50%
same,"viability, T/C",[11],92.5%
same,"viability, T/C",[12],75%
same,"viability, T/C","second compound 0.316 µM, first compound 0.316 µM",88.8%
same,"viability, T/C","second compound 0.316 µM, first compound 1 µM",79.4%
same,"viability, T/C","second compound 0.316 µM, first compound 3.16 µM",75.3%
same,"viability, T/C","second compound 0.316 µM, first compound 10 µM",54.8%
same,"viability, T/C",[13],107%
same,"viability, T/C",[14],81.1%
same,"viability, T/C","second compound 1 µM, first compound 0.316 µM",85.8%
same,"viability, T/C","second compound 1 µM, first compound 1 µM",90.5%
same,"viability, T/C","second compound 1 µM, first compound 3.16 µM",78%
same,"viability, T/C","second compound 1 µM, first compound 10 µM",56.6%
same,"viability, T/C",[15],107%
same,"viability, T/C",[16],94.2%
same,"viability, T/C","second compound 3.16 µM, first compound 0.316 µM",85.8%
same,"viability, T/C","second compound 3.16 µM, first compound 1 µM",79.9%
same,"viability, T/C","second compound 3.16 µM, first compound 3.16 µM",53.4%
same,"viability, T/C","second compound 3.16 µM, first compound 10 µM",56.5%
same,"viability, T/C",[17],91.7%
same,"viability, T/C",[18],88.9%
same,"viability, T/C","second compound 10 µM, first compound 0.316 µM",67.7%
same,"viability, T/C","second compound 10 µM, first compound 1 µM",71.4%
same,"viability, T/C","second compound 10 µM, first compound 3.16 µM",72.1%
same,"viability, T/C","second compound 10 µM, first compound 10 µM",44%
